Four molecules from patent US20180318263A1 (The Regents of the University of Colorado, a body corporate, priority 2016, published 2018) can be followed below.

Entries after “also recorded” stand apart in the source; their conditions may differ.

The subject of one assay is LNCaP CPT1A-KD clones. Briefly: growth of LNCaP CPT1A-KD clones with enzalutamide. It counts as cell-based, human. As to conditions: enzalutamide (MDV3100) versus control clone. As for the experimental part:
(C) Relative growth of LNCaP-KD clones compared to control (NTshRNA) with Enza treatment. *p<0.001, compared to control treatment. ap<0.01 compared to control clone. (NTshRNA—left; CPT1Ash1—center; and CPT1 Ash2 at each timepoint for FIGS. 6A and 6B.)
Data is normalized to the vehicle (0 μM, no drug) treatment. Data represents mean±SD.
Etomoxir targets CPT1. […] It is possible that the decrease in AR observed with etomoxir is due to off-targets effects of the drug (besides CPT1), and/or the cells may need to be studied at earlier time points when apoptotic and ER stress mechanisms have not been set in motion.

Another assay deals with LNCaP-Enza-Res cells. The assay can be described thus: growth of enzalutamide-resistant LNCaP cells (MTS). It counts as cell-based, human. The following applies: for growth of enzalutamide-resistant LNCaP cells versus parental: single fat oxidation inhibitor, 48 hours. The source says: FIG. 16 is a set of four graphs split over two pages. […] Data is normalized to the vehicle treatment (no drugs). […] Data is normalized to the vehicle treatment (no drugs). […] Data is normalized to the vehicle treatment (no drugs). […] Data is normalized to the vehicle treatment (no drugs).
FIG. 17 is a pair of graphs showing the effects of treatment on the indicated cells. […] Data is normalized to the vehicle treatment (no drugs). […] Both concentrations are in microMolar (μM).
(§1) Parental LNCaP and VCaP cells treated with vehicle were used as their corresponding controls.

For a further assay, the system named is TRAMPC1 cells. The assay can be described thus: mouse TRAMPC1 cell growth / clonogenic assay. It counts as cell-based. The following applies: for sensitivity to each drug treatment alone: TRAMPC1, enzalutamide (5 μM); for sensitivity of mouse prostate cancer cells: FIG. 12. The source says:
FIG. 10 is an image and a graph showing mouse TRAMPC1 cell growth assay. […] Representative crystal violet stains are shown above graph.
These cells are important model because they can be placed in syngeneic C57B1 mice with a complete immune system.
This cell line from mouse PCa allows the evaluation of treatments in vivo, using immune-competent […] mice, which are syngenic with the TRAMPC1 cells.

Assay [1] concerns enzalutamide-resistant PCa cells. Briefly: colony formation of enzalutamide-resistant versus parental PCa cells. It counts as cell-based. The source says: Colony formation was examined after 2 weeks by crystal violet stain and analyzed with image J.
In the next assay the test system is PCa cells. The assay can be described thus: 14C-lipid oxidation in PCa cells. Format: cell-based.
The subject of the next assay is PCa cell lines. Briefly: growth/viability of PCa cell lines with etomoxir. As to conditions: etomoxir (75 μM in FIG. 2D), p<0.01. It counts as cell-based, human. The source says:
(§2) (E) Stain of xenografts slices with phospho-4EBP1 antibody. (F) Western blot of LNCaP cells treated with vehicle (“V”) or etomoxir (“E”), C-Casp3=cleaved-caspase 3. (G) Putative diagram of mTOR signaling pathway.

For a further assay, the system named is BPH-1 and WPMY-1 cells. Briefly: viability of benign prostate cells with etomoxir. The following applies: etomoxir 75 μM. It counts as cell-based.
Excerpt: as §2

Another assay has as its system VCaP tumor. Briefly: VCaP xenograft tumor growth in mice treated with etomoxir. It counts as in vivo. As to conditions: VCaP xenografts, etomoxir 40 mg/kg/day for 21 days, p<0.05.
Excerpt: as §2

In a further assay the test system is mTOR. Briefly: ceramides and mTOR signaling after etomoxir. Format: cell-based.
Excerpt: as §2

Another assay deals with primary PCa cells. Briefly: primary PCa cells derived from prostatectomies treated with etomoxir. It counts as cell-based, human. As to conditions: data not shown. The source says:
The effects of etomoxir in primary PCa cells derived from prostatectomies carried out at University of Colorado hospital were examined.

For another assay, the system named is LNCaP cells. Briefly: ER stress markers in etomoxir-treated LNCaP cells. Format: cell-based, human. The source says:
(C) Phosphorylation of the α-subunit of the translation initiation factor eIF2 (p-eIF2a) and expression of LC3 cleavage marker of autophagy. (D) Agarose gel showing the spliced (activated, 447 bp) XBP1 factor that regulates the response to ER stress.

For another assay, the system named is androgen receptor (AR). The assay can be described thus: AR gene expression and Western blot in LNCaP cells. It counts as cell-based, human. As to conditions: etomoxir 48 hours, p<0.05. Here is the method:
(A) Relative AR gene expression after vehicle (“V”) or etomoxir (“E”) treatment in LNCaP cells. ARfl=full length AR; ARv7=AR variant 7; AR total=all AR isoforms; PSA=prostate specific antigen; NKX3.1=Homeodomain-containing transcription factor regulated by androgens. […] (B) Western blot of full length AR and ARV7 variant in LNCaP cells treated with etomoxir for 48 hours.

Another assay has as its system VCaP-Enza-Res cells. The assay can be described thus: growth of enzalutamide-resistant VCaP cells. Format: cell-based, human. As to conditions: single fat oxidation inhibitor, 48 hours.
Excerpt: as §1

The test system of assay [2] is tumors of human cells resistant to enzalutamide. The assay can be described thus: enzalutamide-resistant human tumors in nude mice treated with ranolazine. It counts as in vivo. The following applies: injections started on day 5.

For `CNC(=O)c1ccc(N2C(=S)N(c3ccc(C#N)c(C(F)(F)F)c3)C(=O)C2(C)C)cc1F` [enzalutamide], the “cell growth of CPT1A-deficient LNCaP clones” value with LNCaP CPT1A-KD clones is “more sensitive to enzalutamide treatment; also recorded: synergistic effect on cell growth”. In the assay on LNCaP-Enza-Res cells (LNCaP-enzalutamide resistant cells versus parental, p<0.001), the “growth in the presence of enzalutamide” value is on record as “can grow in the presence of enzalutamide”. In the assay on TRAMPC1 cells, the “sensitivity to each drug treatment alone” value is listed as “not very sensitive”. For the same molecule, the “growth in the presence of enzalutamide compared to parental controls” value in assay [1] is recorded as “grow better in the presence of enzalutamide”.

`CCOC(=O)[C@@]1(CCCCCCOc2ccc(Cl)cc2)CO1` [etomoxir]: in the assay with PCa cells, the 14C-lipid oxidation result is on record as “able to block 14C-lipid oxidation”. The “growth / viability of PCa cells” value with PCa cell lines was “decrease their growth and died”. Further, the “growth / viability of PCa cells” value in the assay on PCa cell lines (listed as Etomoxir) is on record as “decreases the viability”. Further, the “growth effect in benign cells” value in the assay on BPH-1 and WPMY-1 cells is on record as “not seen”. For the same molecule, the tumor growth entry in the assay on VCaP tumor is “Decreased VCaP tumor growth; also recorded: also observed”. Also, the “mTOR and downstream effectors S6K and 4EBP-1” value in the assay with mTOR (etomoxir treatment) is “decreased mTOR and its downstream effectors S6K and 4EBP-1”. Besides, the palmitate-containing ceramides entry with mTOR (etomoxir treatment (not shown)) was “increased palmitate-containing ceramides”. Further, in the assay on primary PCa cells, the glucose uptake entry is “momentary increase in glucose uptake” and the “viability compared to matched non-cancerous cells” value is reported as “concomitant decrease in viability”. Besides, the “autophagy markers (LC3)” value with LNCaP cells was “increase in autophagy markers (LC3)”. Further, the “markers of ER stress” value with LNCaP cells (ATF4, GADD34, GRP78, CHOP, p<0.001) is listed as “increase in markers of ER stress”. Further, the “expression of androgen receptor (AR) and its variant forms” value in the assay with androgen receptor (AR) was “significant decrease”. Further, in the assay on TRAMPC1 cells, the “sensitivity of mouse prostate cancer cells” value was “sensitive”.

As to `C1CCC(C(CC2CCCCN2)C2CCCCC2)CC1` (stereo not shown) [perhexiline], the “sensitivity of mouse prostate cancer cells” value in the assay on TRAMPC1 cells was “sensitive”.

Take `COc1ccccc1OCC(O)CN1CCN(CC(=O)Nc2c(C)cccc2C)CC1` (stereo not shown) [ranolazine]: the “growth of enzalutamide-resistant LNCaP cells versus parental” value in the assay with LNCaP-Enza-Res cells is “more sensitive to ranolazine than their corresponding parental controls”; in the assay with LNCaP-Enza-Res cells (listed as Ranolazine), “inhibits growth”. The “growth of enzalutamide-resistant VCaP cells versus parental” value is recorded as “more sensitive to ranolazine than their corresponding parental controls” in the assay with VCaP-Enza-Res cells and “inhibits growth” with VCaP-Enza-Res cells (listed as Ranolazine). Also, the “sensitivity of mouse prostate cancer cells” value in the assay with TRAMPC1 cells is given as “sensitive”. For the same molecule, in the assay on TRAMPC1 cells, the “sensitivity to each drug treatment alone” value is “not very sensitive”. For the same molecule, the “sensitivity of enzalutamide-resistant tumors” value in [2] is “show signs of sensitivity”.
